Where two headings read alike, the source gives them in different places.
Experiments:
[1] = tested on: A549; assay: Cytotoxicity, MTT assay, A549; format: cell-based, human
Experimental: (§1) The cytotoxic effects of the chemicals and their solvents were tested by the MTT assay,[44] and its procedure is described in Supplementary Information.
(§2) The cytotoxic effects of the chemicals and their solvents used were tested by the MTT assay as described previously.^10 In brief, the chemicals were dissolved in DMSO to a stock concentration of 10 mM, and then freshly serially diluted in serum-free medium before being added to cell culture monolayers. The absorbance was measured using an enzyme-linked immunosorbent assay (ELISA) reader at an optical density (OD) of 570 nm. The percent cell viability was calculated using the following formula, [(ODsample˗ODblank)/(ODcontrol˗ODblank)] × 100%. According to the cell cytotoxicity data, dose-response curves were generated for the calculation of CC50 using GraphPad Prism software version 8.4.2.

[2] = tested on: Vero E6; assay: Cytotoxicity, MTT assay, Vero E6; format: cell-based, African green monkey
Experimental: as §1, §2

[3] = tested on: LLC-PK; assay: Cytotoxicity, MTT assay, LLC-PK; format: cell-based, porcine
Experimental: as §1, §2

[4] = tested on: SARS-CoV-2 KCDC03 strain; format: in vivo, Syrian hamsters
[5] = tested on: palmitic and oleic acids; assay: LC-MS quantification of palmitic and oleic acids in IAV-infected A549 cells; format: cell-based, human; settings: 20 μM
Experimental: The difference in saturated and unsaturated FFAs between the untreated and the treated cells after infection with IAV or SARS-CoV-2 was determined by GC-FID and LC-MS as previously reported,[11] and detailed procedures are described in Supplementary Information.
The amount of palmitic and oleic acids in the untreated and treated cells after infection with IAV was determined by LC-MS. In brief, A549 cells infected with IAV PR8 strain at an MOI of 0.1 were vehicle-treated, or treated with 20 μM atglistatin or CAY10499 at 12 hpi, or treated with 20 μM atglistatin or CAY10499 and then supplemented individually with 100 μM of PA or OA at 12 hpi, and incubated further for 12 h. Afterward, cells were collected for FFA extraction. 700 μL Chloroform : Methanol (2:1) was added to the freeze cell pellets and vortexed for 1 min. The mixture was sonicated for 5 min and re-vortexed for 1 min. The mixture was centrifuged at 13,000 rpm for 8 min, and the lower organic layer was collected and transferred into a micro-tube. Using vacuum concentrator, the extracts were dried. Finally, the extracts were re-dissolved by methanol and centrifuged at 13,000 rpm for 5 min. The supernatants were transferred into LC-MS vials. […] The standard compounds as well as extracted samples were analyzed in selective ion monitoring (SIM) mode using the ESI source by monitoring the H^- adducts ions. […]

[6] = In vivo toxicity in hamsters (body weight, gross and histopathological organ changes)
Experimental: Three groups of 3 hamsters were treated intraperitoneally with 20, 40, and 80 mg kg^-1 d^-1 of atglistatin prepared in a 100 μL vehicle [50% PEG400 in water (vol/vol)] Bid with a 12 h interval for four and a half consecutive days, respectively (Table S10). One group of 3 control anesthetized hamsters was administered intraperitoneally with 100 μL vehicle Bid with a 12 h interval for four and a half consecutive days (Table S10).
Histopathological changes in lungs, liver, kidney, heart, and spleen from the experimental mice or hamsters in each experimental group were determined as described elsewhere.^35 Briefly, each sample from the mice or hamsters in each experimental group was fixed in sufficient 10% neutral formalin at 20°C for 3-4 days, washed in tap water, then trimmed, and thereafter processed in the automatic embedding machine for the dehydration and paraffin embedment. Tissue sections, prepared on slides at a thickness of 3 μm by a microtome, were used for hematoxylin and eosin (H&E) staining or IHC as described below. H&E stained sections were observed under light microscopy. The morphological changes to lung, liver, kidney, heart, and spleen tissues were reviewed in a blinded manner as previous described.^35

[7] = mouse, in vivo, ip

SMILES | CC50 [1] [µM] | CC50 [2] [µM] | CC50 [3] [µM] | gross lung lesions ([4]; […], different concentrations (20, 40, 80 mg kg^-1 d^-1)) | FFA and glycerol release from LDs in lungs ([4]; hamster, in vivo) | IFN-α and IFN-β production ([4]; hamster, in vivo) | levels of TNF-α, IL-6, and MCP-1 ([4]; hamster, in vivo) | reduction in lung lesions ([4]; hamster, in vivo) [%] | levels of PA and OA (LC-MS) [5] | toxicity, including body weight loss ([6]; 80 mg kg^-1 d^-1 atglistatin and 2.5 mg kg^-1 d^-1 remdesivir, singly or in combination) | gross and histopathological changes in major organs (liver, lung, kidney, heart, spleen) ([6]; 20, 40, or 80 mg kg^-1 d^-1 Bid for 4.5 consecutive days) | overt signs of toxicity, including loss of body weight ([6]; intraperitoneal 80 mg kg^-1 d^-1) | overt signs of toxicity, including loss of body weight [7]
CN(C)C(=O)Nc1cccc(-c2ccc(N(C)C)cc2)c1 [Atglistatin] | 206 ± 3 | 226 ± 2.4 | 224 ± 2.3 | improved gross lung lesions in a dose-dependent manner | inhibition of FFA and glycerol release | no effect | reduced | 72 | significantly reduced | no toxicity | no gross and histopathological changes | did not induce any overt signs of toxicity | –
COc1nn(-c2ccc(NC(=O)OCc3ccccc3)c(C)c2)c(=O)o1 [CAY10499] | 106 ± 8.9 | 102 ± 8.3 | 109 ± 8.1 | – | – | – | – | – | significantly reduced | – | – | – | did not induce any overt signs of toxicity

Source: paper PMC9575645 (Signal Transduction and Targeted Therapy, 2022)
